Data taken from US20230085307A1, “PYRIDAZINONE COMPOUND AND HERBICIDE” (NISSAN CHEMICAL CORPORATION, priority 2019, published 2023).

Assays:
[1] = tested on: false cleavers; experiment: Test Example 4: herbicidal effect by soil treatment (Table 19, symbol Q); format: in vivo, false cleavers (Galium spurium)
Summary of the method: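 Emulsion of test compound, water-diluted to predetermined amount, sprayed on soil after sowing (seed depth ~1.5 cm, sterilized diluvial soil). Greenhouse, 25–30° C. Effect graded at three weeks post-spray.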

[2] = tested on: false cleavers; experiment: Test Example 5: herbicidal effect by foliage application, plastic box (Table 20, symbol Q); format: in vivo, false cleavers (Galium spurium); conditions: foliage application; for herbicidal effect grade, Q: false cleavers / Q: false cleavers, herbicidal effect: three weeks after application; for Q: false cleavers, herbicidal effect / Q: false cleavers, herbicidal effect (criteria 0-5): AAH 320 g/ha; for effect on false cleavers (Q): 3 weeks after application; for herbicidal effect on Q: false cleavers / Q: false cleavers, herbicidal effect (criteria 0-5): evaluated three weeks after application
Summary of the method: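 Post-emergence foliar test in sterilized diluvial soil. Compound applied as water-diluted emulsion at a predetermined rate to 14-day-old plants; evaluation at three weeks.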

[3] = amount of applied herbicide 320 g/ha

## C#CC(C)Oc1ccc(-c2sc3ccccc3c2-c2c(O)c(C)nn(C)c2=O)cc1 (racemic) [1-217]
[1]; AAH 320 g/ha
  Q: false cleavers, herbicidal effect rating: 3 (Herbicidal rate of 40% or more and less than 70%)

## C#CC(C)Oc1ccc(-c2sc3ccccc3c2-c2c(OCOCCOC)c(C)nn(C)c2=O)cc1 (racemic) [1-218]
[1]; AAH 187 g/ha
  Q: false cleavers, herbicidal effect rating: 0 (Herbicidal rate of 5% or less (almost no effect))

## CCCOc1ccccc1-c1sc2ccccc2c1-c1c(O)c(C)nn(C)c1=O [1-015]
[2]; 320 g/ha
  herbicidal effect grade, Q: false cleavers: 5 (Herbicidal rate of 90% or more (almost completely withered))
[1]; [3]
  herbicidal effect rating, Q: false cleavers: 3 (Herbicidal rate of 40% or more and less than 70%)

## CCCCCOc1ccc(-c2sc3ccccc3c2-c2c(O)c(C)nn(C)c2=O)cc1 [1-026]
[2]; 320 g/ha
  herbicidal effect grade, Q: false cleavers: 4 (Herbicidal rate of 70% or more and less than 90%)
[1]; [3]
  herbicidal effect rating, Q: false cleavers: 0 (Herbicidal rate of 5% or less (almost no effect))

## Cc1nn(C)c(=O)c(-c2c(-c3ccccc3OC(F)(F)F)sc3ccccc23)c1O [1-030]
[2]; 320 g/ha
  herbicidal effect grade, Q: false cleavers: 5 (Herbicidal rate of 90% or more (almost completely withered))
[1]; [3]
  herbicidal effect rating, Q: false cleavers: 5 (Herbicidal rate of 90% or more (almost completely withered))

## CC(=O)c1ccc(-c2sc3ccccc3c2-c2c(O)c(C)nn(C)c2=O)cc1 [1-041]
[2]; 320 g/ha
  herbicidal effect grade, Q: false cleavers: 4 (Herbicidal rate of 70% or more and less than 90%)
[1]; [3]
  herbicidal effect rating, Q: false cleavers: 5 (Herbicidal rate of 90% or more (almost completely withered))

## CCCC(=O)Oc1c(C)nn(C)c(=O)c1-c1c(-c2ccc(C(C)=NOC)cc2)sc2ccccc12 [1-044]
[2]; 320 g/ha
  herbicidal effect grade, Q: false cleavers: 3 (Herbicidal rate of 40% or more and less than 70%)
[1]; [3]
  herbicidal effect rating, Q: false cleavers: 4 (Herbicidal rate of 70% or more and less than 90%)

## Cc1cc(-c2sc3ccccc3c2-c2c(O)c(C)nn(C)c2=O)ccc1F [1-051]
[2]; 320 g/ha
  herbicidal effect grade, Q: false cleavers: 0 (Herbicidal rate of 5% or less (almost no effect))
[1]; [3]
  herbicidal effect rating, Q: false cleavers: 0 (Herbicidal rate of 5% or less (almost no effect))

## CCOc1cc(F)ccc1-c1sc2ccccc2c1-c1c(O)c(C)nn(C)c1=O [1-061]
[2]; 320 g/ha
  herbicidal effect grade, Q: false cleavers: 5 (Herbicidal rate of 90% or more (almost completely withered))
[1]; [3]
  herbicidal effect rating, Q: false cleavers: 4 (Herbicidal rate of 70% or more and less than 90%)

## COC(=O)Oc1c(C)nn(C)c(=O)c1-c1c(-c2ccc3c(c2)OCCO3)sc2ccccc12 [1-091]
[2]
  Q: false cleavers, herbicidal effect: 4 (Herbicidal rate of 70% or more and less than 90%)
[1]; [3]
  herbicidal effect rating, Q: false cleavers: 3 (Herbicidal rate of 40% or more and less than 70%)

## Cc1nn(C)c(=O)c(-c2c(-c3ccc4c(c3)OCCO4)sc3ccccc23)c1OC(=O)SC(C)(C)C [1-092]
[2]
  Q: false cleavers, herbicidal effect: 0 (Herbicidal rate of 5% or less (almost no effect))
[1]; [3]
  herbicidal effect rating, Q: false cleavers: 0 (Herbicidal rate of 5% or less (almost no effect))

## Cc1nn(C)c(=O)c(-c2c(-c3ccc4c(c3)CCO4)sc3ccccc23)c1O [1-101]
[2]
  Q: false cleavers, herbicidal effect: 3 (Herbicidal rate of 40% or more and less than 70%)
[1]; [3]
  herbicidal effect rating, Q: false cleavers: 3 (Herbicidal rate of 40% or more and less than 70%)

## CCCC(=O)Oc1c(C)nn(C)c(=O)c1-c1c(-c2ccc3c(c2)CCO3)sc2ccccc12 [1-102]
[2]
  Q: false cleavers, herbicidal effect: 1 (Herbicidal rate of 5% or more and less than 20%)
[1]; [3]
  herbicidal effect rating, Q: false cleavers: 0 (Herbicidal rate of 5% or less (almost no effect))

## COCc1ccc(-c2sc3ccccc3c2-c2c(O)c(C)nn(C)c2=O)cc1 [1-131]
[2]
  Q: false cleavers, herbicidal effect: 4 (Herbicidal rate of 70% or more and less than 90%)
[1]; AAH 320 g/ha
  Q: false cleavers, herbicidal effect rating: 0 (Herbicidal rate of 5% or less (almost no effect))

## Cc1nn(C)c(=O)c(-c2c(-c3ccc(OCCBr)cc3)sc3ccccc23)c1O [1-204]
[1]; AAH 320 g/ha
  Q: false cleavers, herbicidal effect rating: 0 (Herbicidal rate of 5% or less (almost no effect))

## C=C(C)COc1ccc(-c2sc3ccccc3c2-c2c(O)c(C)nn(C)c2=O)cc1 [1-208]
[1]; AAH 320 g/ha
  Q: false cleavers, herbicidal effect rating: 0 (Herbicidal rate of 5% or less (almost no effect))

## Cc1nn(C)c(=O)c(-c2c(-c3ccc(OCCC4OCCO4)cc3)sc3ccccc23)c1O [1-223]
[1]; AAH 246 g/ha
  Q: false cleavers, herbicidal effect rating: 0 (Herbicidal rate of 5% or less (almost no effect))

## COc1ccc(-c2sc3ccc(F)cc3c2-c2c(O)c(C)nn(C)c2=O)cc1 [2-026]
[2]; 320 g/ha
  effect on false cleavers (Q): 4 (Herbicidal rate of 70% or more and less than 90%)

## CCCC(=O)Oc1c(C)nn(C)c(=O)c1-c1c(-c2ccccc2OCC)sc2ccc(F)cc12 [2-029]
[2]; 266 g/ha
  effect on false cleavers (Q): 4 (Herbicidal rate of 70% or more and less than 90%)
[1]; 266 g/ha
  herbicidal effect rating, Q: false cleavers: 3 (Herbicidal rate of 40% or more and less than 70%)

## CCCOc1ccc(-c2sc3ccc(F)cc3c2-c2c(O)c(C)nn(C)c2=O)cc1 [2-032]
[1]; 320 g/ha
  herbicidal effect rating, Q: false cleavers: 0 (Herbicidal rate of 5% or less (almost no effect))

## Cc1nn(C)c(=O)c(-c2c(-c3ccc(OC(C)C)cc3)sc3ccc(F)cc23)c1O [2-034]
[2]; 320 g/ha
  effect on false cleavers (Q): 4 (Herbicidal rate of 70% or more and less than 90%)
[1]; 320 g/ha
  herbicidal effect rating, Q: false cleavers: 0 (Herbicidal rate of 5% or less (almost no effect))

## CCCCOc1ccc(-c2sc3ccc(F)cc3c2-c2c(O)c(C)nn(C)c2=O)cc1 [2-036]
[2]; 320 g/ha
  effect on false cleavers (Q): 4 (Herbicidal rate of 70% or more and less than 90%)

## CON=C(C)c1ccc(-c2sc3ccc(F)cc3c2-c2c(O)c(C)nn(C)c2=O)cc1 [2-079]
[2]; 320 g/ha
  herbicidal effect on Q: false cleavers: 5 (Herbicidal rate of 90% or more (almost completely withered))

## CCOc1cc(F)ccc1-c1sc2ccc(F)cc2c1-c1c(O)c(C)nn(C)c1=O [2-084]
[2]; 320 g/ha
  herbicidal effect on Q: false cleavers: 5 (Herbicidal rate of 90% or more (almost completely withered))

## CCCC(=O)Oc1c(C)nn(C)c(=O)c1-c1c(-c2ccc(F)cc2OCC)sc2ccc(F)cc12 [2-085]
[2]; 320 g/ha
  herbicidal effect on Q: false cleavers: 5 (Herbicidal rate of 90% or more (almost completely withered))
[1]; 320 g/ha
  herbicidal effect rating, Q: false cleavers: 4 (Herbicidal rate of 70% or more and less than 90%)

## Cc1nn(C)c(=O)c(-c2c(-c3ccc4c(c3)OCCO4)sc3ccc(F)cc23)c1O [2-092]
[2]; 320 g/ha
  herbicidal effect on Q: false cleavers: 4 (Herbicidal rate of 70% or more and less than 90%)

## Cc1nn(C)c(=O)c(-c2c(-c3ccc(Br)cc3)sc3ccc(F)cc23)c1O [2-205]
[1]; [3]
  Q: false cleavers, herbicidal effect rating: 1 (Herbicidal rate of 5% or more and less than 20%)

## COCC(=O)Oc1c(C)nn(C)c(=O)c1-c1c(-c2ccc(OC(F)F)cc2)sc2ccc(F)cc12 [2-283]
[2]
  Q: false cleavers, herbicidal effect (criteria 0-5): 5 (Herbicidal rate of 90% or more (almost completely withered))
[1]; [3]
  herbicidal effect on Q: false cleavers: 0 (Herbicidal rate of 5% or less (almost no effect))

## Cc1nn(C)c(=O)c(-c2c(-c3ccc(OC(F)F)cc3)sc3ccc(F)cc23)c1OC(=O)OCCCl [2-293]
[2]
  Q: false cleavers, herbicidal effect (criteria 0-5): 5 (Herbicidal rate of 90% or more (almost completely withered))

## Cc1nn(C)c(=O)c(-c2c(-c3ccc(OC(F)F)cc3)sc3ccc(F)cc23)c1OC(=S)Sc1ccccc1 [2-298]
[1]; [3]
  herbicidal effect on Q: false cleavers: 0 (Herbicidal rate of 5% or less (almost no effect))

## Cc1nn(C)c(=O)c(-c2c(-c3ccc(O)cc3)sc3ccc(F)cc23)c1O [2-337]
[1]; [3]
  herbicidal effect on Q: false cleavers: 0 (Herbicidal rate of 5% or less (almost no effect))

## Cc1nn(C)c(=O)c(-c2c(-c3ccc([N+](=O)[O-])cc3)sc3ccc(F)cc23)c1O [2-341]
[1]; [3]
  herbicidal effect on Q: false cleavers: 0 (Herbicidal rate of 5% or less (almost no effect))
